Article PMC10761933, “Acquired and intrinsic resistance to vemurafenib in BRAF^V600E ‐driven melanoma brain metastases” (FEBS Open Bio, 2023)

What was measured:
[1] = oral, WT mice; cited from earlier work
intracranial A375 tumors [2] = test: Immunohistochemical analysis of vemurafenib‐resistant A375 melanoma brain metastases; format: in vivo; settings: Abcb1a/b;Abcg2−/− mice, 10 mg·kg^−1 × 10d, vs untreated
Procedure: Mouse brains were fixed in 4% (v/v) formaldehyde. Alternatively, whole heads without skin were fixed in 4% (v/v) formaldehyde and 5% (v/v) glacial acetic acid and subsequently decalcified using a 6.5% (v/v) formic acid solution for 3 days at 37 °C. After fixation, samples were paraffin embedded and sliced into 4 μm thick sections. Whole head slides were stained for hematoxylin and eosin (H&E), human vimentin (1 : 4000; M0725; DakoCytomation, Glostrup, Denmark), P‐gp (1 : 200; 13978; Cell Signaling Technology, Danvers, MA, USA), BCRP (1 : 400; ab24115; Abcam, Cambridge, UK), and CD31 (1 : 200; ab28364; Abcam). Vessel positivity for P‐gp, BCRP, and CD31, as quantified in Fig. 1B, was manually scored in at least 200 vessels per staining. Specific antibody staining for P‐gp and BCRP was validated previously using whole head slices from Abcb1a/b;Abcg2 ^ −/− mice (fig. S2 from).
Brain slides were stained for H&E, PDGFRβ (1 : 50; 3169; Cell Signaling Technology), phospho‐MET (1 : 150; 3077; Cell Signaling Technology), MET (1 : 100; AF527; R&D Systems, Minneapolis, MN, USA), phospho‐IGF1R (1 : 40 000; sc‐101703; Santa Cruz Biotechnology, Dallas, TX, USA), AXL (1 : 100; 8661; Cell Signaling Technology), NGFR (1 : 400; 8238; Cell Signaling Technology), phospho‐EGFR (1 : 600; ab40815; Abcam), EGFR (1 : 200; ab52894; Abcam), BRAF^V600E (1 : 100; E19290; SpringBioscience, Pleasanton, CA, USA), phospho‐ERK1/2 (1 : 200; 4370; Cell Signaling Technology), phospho‐AKT (1 : 8000; 4060; Cell Signaling Technology), phospho‐S6 (1 : 1000; 2211; Cell Signaling Technology), phospho‐4EBP1 (1 : 100; 2855; Cell Signaling Technology), 4EBP1 (1 : 1200; 9644; Cell Signaling Technology), SOX10 (1 : 100; sc‐17342; Santa Cruz Biotechnology), MITF (1 : 100; 284 M‐94; Cell Marque, Rocklin, CA, USA), and Ki‐67 (1 : 3000; ab15580; Abcam).

subcutaneous A375 tumors = test: Efficacy against subcutaneous A375 tumors (caliper); format: in vivo; settings: 25 mg·kg^−1 in WT mice and 10 mg·kg^−1 in Abcb1a/b;Abcg2−/− mice, 13 consecutive days
Procedure: For subcutaneous xenograft models, 30 μL of cell suspension containing 3 × 10^6 A375 cells was injected into both flanks of FVB WT and Abcb1a/b;Abcg2 ^ −/− nude mice. For xenograft MBM models, stereotactic intracranial injections (A375 and Mel57) or intracarotid injections (K1735) of melanoma cells were performed as described previously. For intracranial injections, FVB nude mice were injected intracranially with 2 μL of A375 or Mel57 cell suspension containing 1 × 10^5 cells 2 mm lateral, 1 mm anterior, and 3 mm ventral from the bregma. For intracarotid injections, 1 × 10^5 cells in 100 μL HBSS were injected in the left common carotid artery of C3H/HeN mice. Tumor growth was measured by bioluminescence imaging (BLI) for intracranial tumors and by caliper for subcutaneous tumors. The volume of subcutaneous tumors was calculated in mm^3 using the modified ellipsoid formula (volume = 0.5 × length × width^2). […] Animals were stratified into treatment groups to achieve a similar mean bioluminescence reading within each cohort. […] All subsequent measurements were recorded relative to this first measurement and converted to their log values. Mean ± standard error (SE) values were calculated and plotted in graphs.
For the subcutaneous tumor model, therapy was initiated 2 weeks after implantation, when the tumor volume exceeded 40 mm^3. […] Tumor development was assessed by caliper twice a week. […]

[3] = Body weight during efficacy studies; format: in vivo, mice
Procedure: (§1) For the subcutaneous tumor model, therapy was initiated 2 weeks after implantation, when the tumor volume exceeded 40 mm^3. FVB WT and Abcb1a/b;Abcg2 ^ −/− nude mice (n = 8) received 25 and 10 mg·kg^−1 of vemurafenib daily, respectively. Control mice (n = 8) received vehicle. Tumor development was assessed by caliper twice a week. For the intracranial tumor model, treatment was started about 2 weeks after intracranial injection of tumor cells, when full‐blown tumors were present in all animals. WT and Abcb1a/b;Abcg2 ^ −/− nude mice received vehicle, 25 mg·kg^−1 vemurafenib, 10 mg·kg^−1 vemurafenib plus 100 mg·kg^−1 elacridar, or 10 mg·kg^−1 vemurafenib once daily for 10 consecutive days or in a 5 days on/2 days off/5 days on schedule, as indicated in the relevant figure panels. Tumor growth was monitored by BLI every 4 or 5 days. Mice were weighed daily weighed examined for abnormalities. The mice were humanely sacrificed based on BLI results or when weight loss exceeded 20% of the initial body weight.

[4] = set-up: method as in PMID 25933211; settings: clinical study; cited from earlier work
intracranial A375 tumors [5] = test: Efficacy against intracranial A375 melanoma tumors (BLI, survival); format: in vivo, mice
Procedure: For subcutaneous xenograft models, 30 μL of cell suspension containing 3 × 10^6 A375 cells was injected into both flanks of FVB WT and Abcb1a/b;Abcg2 ^ −/− nude mice. For xenograft MBM models, stereotactic intracranial injections (A375 and Mel57) or intracarotid injections (K1735) of melanoma cells were performed as described previously. For intracranial injections, FVB nude mice were injected intracranially with 2 μL of A375 or Mel57 cell suspension containing 1 × 10^5 cells 2 mm lateral, 1 mm anterior, and 3 mm ventral from the bregma. For intracarotid injections, 1 × 10^5 cells in 100 μL HBSS were injected in the left common carotid artery of C3H/HeN mice. Tumor growth was measured by bioluminescence imaging (BLI) for intracranial tumors and by caliper for subcutaneous tumors. The volume of subcutaneous tumors was calculated in mm^3 using the modified ellipsoid formula (volume = 0.5 × length × width^2). Bioluminescence images were acquired following i.p. D‐luciferin (150 mg·kg^−1; Promega) using an IVIS 200 or IVIS Spectrum system with LIVING IMAGE software v4.5 (both PerkinElmer, Waltham, MA, USA). Animals were stratified into treatment groups to achieve a similar mean bioluminescence reading within each cohort. The bioluminescence intensity of each individual animal on the day of the start of treatment (Day 0) was arbitrarily set at 100%. All subsequent measurements were recorded relative to this first measurement and converted to their log values. Mean ± standard error (SE) values were calculated and plotted in graphs.
as §1

[6] = test system: melanoma brain metastases; settings: MBM patients; cited from earlier work

## CCCS(=O)(=O)Nc1ccc(F)c(C(=O)c2c[nH]c3ncc(-c4ccc(Cl)cc4)cc23)c1F [vemurafenib]
[1]
  brain–plasma ratio: around 0.02
Intracranial A375 tumors [2]
  PDGFRβ expression (immunohistochemistry): appeared to be diminished
  proliferation marker Ki‐67 (immunohistochemistry): similarly unaffected
Intracranial A375 tumors [2]; n = 2 per group
  immunohistochemical staining of phospho‐S6 and phospho‐4EBP1: profoundly reduced
Subcutaneous A375 tumors
  efficacy against subcutaneous A375 tumors, WT vs Abcb1a/b;Abcg2−/− mice: equally effective
[3]; Abcb1a/b;Abcg2−/− mice with intracranial A375, two cycles of 5 days of 25 mg·kg^−1 daily oral
  body weight: without affecting body weight
[3]; intracranial A375, any treatment regimen (WT 25, WT 10 + elacridar, Abcb1a/b;Abcg2−/− 10 mg·kg^−1)
  body weight: could not observe any weight loss
[3]; subcutaneous A375, 25 mg·kg^−1 in WT and 10 mg·kg^−1 in Abcb1a/b;Abcg2−/− mice, 13 days
  body weight: did not result in body weight loss
[4]
  concentration in cerebrospinal fluid (CSF) as share of the plasma concentration: < 1%
Intracranial A375 tumors [5]; Abcb1a/b;Abcg2−/− mice, 10 mg·kg^−1 q.d. × 10d
  survival: not significantly extended
Intracranial A375 tumors [5]; Abcb1a/b;Abcg2−/− mice, 10 mg·kg^−1 q.d. × 10d, first 3 days of treatment, regrowth under therapy afterwards
  tumor growth of intracranial A375 tumors: induced tumor regression
Intracranial A375 tumors [5]; Abcb1a/b;Abcg2−/− mice, two cycles of 5 days of 25 mg·kg^−1 daily oral
  tumor growth of intracranial A375 tumors: induced regression and subsequent tumor stasis
Intracranial A375 tumors [5]; Abcb1a/b;Abcg2−/− mice, two cycles of 5 days of 25 mg·kg^−1 daily oral, vs vehicle
  survival: a survival difference was already established
Intracranial A375 tumors [5]; WT mice, 10 mg·kg^−1 vemurafenib + 100 mg·kg^−1 elacridar
  antitumor efficacy against intracranial A375 tumors with pharmacological P‐gp/BCRP inhibition vs Abcb1a/b;Abcg2−/− mice at same dose: less efficacious
Intracranial A375 tumors [5]; WT mice, 25 mg·kg^−1 q.d. × 10d
  tumor growth of intracranial A375 tumors: only reduced A375 growth speed
[6]
  median overall survival: 4.3 months
